The results in this text go back to patent US9808470B2, “Estrogenic components for use in the treatment of neurological disorders” (UNIVERSITE DE LIEGE, priority 2012, dated 2017).

The subject of series [1] is Microtubule-associated protein 2 (MAP2). The series is described as follows: Ex.8 neuroprotective HIE rat model: MAP2 staining. The conditions noted are these: 10 mg/kg/day E4. In kind it is in vivo. How it is done: Newborn rat pups were assigned to one of the following 14 groups from postnatal day 4 (FIG. 23(A)): Sham group (n=12), Vehicle group (n=17), 5 mg/kg/day E4 (n=13), 10 mg/kg/day E4 (n=10), 5 mg/kg/day E4+1.6 mg/kg/day PROG (n=11), 10 mg/kg/day E4+1.6 mg/kg/day PROG (n=11), 5 mg/kg/day E4+16 mg/kg/day PROG (n=11), 10 mg/kg/day E4+16 mg/kg/day PROG (n=11), 5 mg/kg/day E4+136 ng//kg/day E2 (n=11), 10 mg/kg/day E4+136 ng/kg/day E2 (n=11), 5 mg/kg/day E4+1.6 mg/kg/day PROG+136 ng/kg/day (n=13) E2, 10 mg/kg/day E4+1.6 mg/kg/day PROG+136 ng/kg/day E2 (n=16), 5 mg/kg/day E4+16 mg/kg/day PROG+136 ng/kg/day E2 (n=11), 10 mg/kg/day E4+16 mg/kg/day PROG+136 ng/kg/day groups (n=13). Intraperitoneal injections of the pups from study groups were performed from postnatal day 4 to postnatal day 7 inclusively. […]
The brain sections were processed for immunohistochemical detection of neuronal cytoskeletal disruption. […] Samples were analyzed with the aid of an image scanner (Nanozoomer Virtual Microscopy, Hamamatsu, Tokyo, Japan) and the ImageJ software (NIH, US). The positive areas in the ipsilateral and contralateral hemispheres were measured. The ratio of the MAP2 positive areas was calculated as the MAP2 positive area of the ipsilateral hemisphere divided by the MAP2 positive area of the contralateral hemisphere. […]

Series [2] in a line: Ex.2 neonatal HIE rat model, pre-treatment: body weight. It is filed as in vivo. The protocol: Sprague-Dawley pregnant rats were obtained from Janvier (France). After delivery newborn rat pups were housed with their dams and reared normally at room temperature (25° C.) under a 12-hour light-dark cycle. All experimental protocols were approved by the University of Liege Ethical Committee. All efforts were made to minimize animal suffering.
Estetrol (E4) was dissolved in saline solution at different concentrations and an equal volume (5 μl/g) of the solution was injected intraperitoneally into the pups from the E4 group(s). Rat pups from the Vehicle group were intraperitoneally injected a saline solution. Rat pups from the Sham group were not injected at all.
Ischemia was produced by surgery encompassing left common carotid artery double ligation and cut; hypoxia was produced by the inhalation of 11%-8% of oxygen balanced by nitrogen at decreased concentration of oxygen for 20 minutes, followed by inhalation of 8% oxygen and 92% nitrogen at constant concentration for 35 minutes.
After delivery, newborn rat pups were assigned to one of the following 4 groups: Sham group, Vehicle group, E4 5 mg/kg/per day group and E4 50 mg/kg/per day group. From day 4 to day 7 inclusive, rat pups were injected intraperitoneally either vehicle (Vehicle group) or E4 (5 mg/kg or 50 mg/kg in accordance to the group assignment) or not injected at all (Sham group). At day 7, 30 minutes after last injection, animals from Vehicle and E4 (5 mg/kg or 50 mg/kg) groups passed through surgery encompassing left common carotid artery double ligation and cut, followed by hypoxia produced by the inhalation of 11%-8% of oxygen balanced by nitrogen at decreased concentration for 20 minutes, followed by inhalation of 8% oxygen and 92% nitrogen at constant concentration for 35 minutes. The Sham group went through similar procedures without left common carotid artery ligation and hypoxia. All the manipulations were performed at 37° C. Rat pups recovered with their dams until being sacrificed at postnatal day 14. […]

On to `C[C@]12CC[C@@H]3c4ccc(O)cc4CC[C@H]3[C@@H]1[C@@H](O)[C@@H](O)[C@@H]2O` [E4, 1,3,5(10)-estratrien-3,15α,16α,17β-tetrol], for which, in series [1], the “ratio of MAP2-positive area (ipsilateral/contralateral)” value came to 0.97±0.01. For the same molecule, the body weight entry in series [2] (E4 5 mg/kg ip day 4-7 before HI, day 8, vs Sham) was “sham operated group had significantly higher body weight”; in series [2] (E4 5 mg/kg ip day 4-7 before HI, post-operative days 13 and 14, vs vehicle), “significantly higher body weight than vehicle treated animals”; in series [2] (E4 50 mg/kg ip day 4-7 before HI, day 10, vs Sham) it was “sham operated group had significantly higher body weight”.
